# Values quoted from earlier work as cited in PMC4369286 (Chemistry Central Journal, 2015).
# Where two headings read alike, the source gives them in different places.
# Tests used:
# [1] = for E (excess molar refractivity descriptor): known values used for comparison
# [2] = value of the pure solvent
# [3] = in several of the organic solvents studied
# [4] = design: method as in earlier work; details: direct partition, monomer
# [5] = known value given as comparison
smiles,measurement,setting,value
"O=C(O)c1ccccc1 [Benzoic acid, benzoic acid]",Kdimer (dimerization constant),in benzene,590
same,Kdimer (dimerization constant),in cyclohexane,11300
same,Kdimer (dimerization constant),in tetrachloromethane,5010
same,S (dipolarity/polarity descriptor),[1]; [5],0.90
same,V (McGowan characteristic volume descriptor),[1]; [5],0.9317
same,E (excess molar refractivity descriptor),[1],0.73
same,E (excess molar refractivity descriptor),[1]; listed as benzoic acid,0.730
CC#N [acetonitrile],"Kamlet-Taft solvent hydrogen bond basicity, β",[2],0.40
CC(=O)Oc1ccccc1C(=O)O [aspirin],solubility in organic solvents,[3],exceeding 1 molar
C1CCCCC1 [cyclohexane],"Kamlet-Taft solvent hydrogen bond basicity, β",[2],0.00
CCOCC [diethyl ether],"Kamlet-Taft solvent hydrogen bond basicity, β",[2],0.47
CCOC(=O)c1ccccc1 [ethyl benzoate],E (excess molar refractivity descriptor),[1],0.689
CCOC(=O)/C=C/c1ccccc1 [ethyl cinnamate],E (excess molar refractivity descriptor),[1],1.102
CO [methanol],"Kamlet-Taft solvent hydrogen bond basicity, β",[2],0.66
O=[N+]([O-])c1ccccc1 [nitrobenzene],"Kamlet-Taft solvent hydrogen bond basicity, β",[2],0.30
CC(C)=O [propanone],"Kamlet-Taft solvent hydrogen bond basicity, β",[2],0.43
CCCOC(C)=O [propyl acetate],"Kamlet-Taft solvent hydrogen bond basicity, β",[2],0.40
O=C(O)/C=C/c1ccccc1 [trans-cinnamic acid],Log Ps (water-solvent partition coefficient),[4]; solvent Cyclohexane,−0.25
same,Log Ps (water-solvent partition coefficient),"[4]; solvent Diethyl ether, wet",1.92
same,Log Ps (water-solvent partition coefficient),"[4]; solvent Octan-1-ol, wet",2.13
same,Log Ps (water-solvent partition coefficient),[4]; solvent Tetrachloromethane,0.40
same,Log Ps (water-solvent partition coefficient),[4]; solvent Trichloromethane,1.20
ClC(Cl)Cl [trichloromethane],"Kamlet-Taft solvent hydrogen bond basicity, β",[2],0.10
OCC(F)(F)F [trifluoroethanol],"Kamlet-Taft solvent hydrogen bond basicity, β",[2],0.00
